Assay results as given in PubChem BioAssay AID200 (DTP/NCI, 2004).
Several values for one entry are separate records, joined by “and”; a condition that tells them apart may be missing. Equal entries are not always repeated. Inconclusive results and toxic doses are left out. Where a SMILES comes first, the peptide text is derived from it.

System: B6C3F1 mice, B16 melanoma ip, median survival T/C
Experiment: NCI In Vivo Anticancer Drug Screen. Data for tumor model B16 Melanoma (intraperitoneal) in B6C3F1 mice
Details: endpoint: median survival time, schedule: Q01DX009 (ip), higher = longer survival
Outline: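 Mice bearing transplanted tumor were dosed with compound or vehicle, and survival was recorded. Activity is expressed as the treated-group measurement (T) divided by the vehicle control measurement (C).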

[1] = dose: 3.12 mg/kg/injection, vehicle: saline
[2] = dose: 6.25 mg/kg/injection, vehicle: saline
[3] = dose: 25.0 mg/kg/injection, vehicle: Klucel (hydroxypropylcellulose) (HPC)
[4] = dose: 25.0 mg/kg/injection, vehicle: saline
[5] = dose: 50.0 mg/kg/injection, vehicle: saline
[6] = dose: 100.0 mg/kg/injection, vehicle: saline
[7] = dose: 200.0 mg/kg/injection, vehicle: saline
[8] = dose: 400.0 mg/kg/injection, vehicle: saline
[9] = dose: 12.5 mg/kg/injection, vehicle: saline
[10] = dose: 12.5 mg/kg/injection, vehicle: saline with Tween-80
[11] = dose: 25.0 mg/kg/injection, vehicle: saline with Tween-80
[12] = dose: 50.0 mg/kg/injection, vehicle: saline with Tween-80
[13] = dose: 100.0 mg/kg/injection, vehicle: saline with Tween-80
[14] = dose: 200.0 mg/kg/injection, vehicle: saline with Tween-80
[15] = dose: 50.0 mg/kg/injection, vehicle: Klucel (hydroxypropylcellulose) (HPC)
[16] = dose: 100.0 mg/kg/injection, vehicle: Klucel (hydroxypropylcellulose) (HPC)
[17] = dose: 200.0 mg/kg/injection, vehicle: Klucel (hydroxypropylcellulose) (HPC)
[18] = dose: 400.0 mg/kg/injection, vehicle: Klucel (hydroxypropylcellulose) (HPC)
[19] = dose: 1.25 mg/kg/injection, vehicle: saline
[20] = dose: 1.25 mg/kg/injection, vehicle: saline with Tween-80
[21] = dose: 2.5 mg/kg/injection, vehicle: saline with Tween-80

In the case of `CCN(CC)CC[n+]1ccc2c(C)c3[nH]c4ccc(O)cc4c3c(C)c2c1`, the T/C [1] is reported as 175 % of control, the T/C [2] is reported as 151 % of control and 171 % of control and the T/C (dose: 6.25 mg/kg/injection, vehicle: suspension in saline) is reported as 151 % of control.

`S=c1nc[nH]c2nc[nH]c12` was tested, and the T/C (dose: 6.25 mg/kg/injection, vehicle: Klucel (hydroxypropylcellulose) (HPC)) was 100 % of control, the T/C (dose: 7.5 mg/kg/injection, vehicle: Klucel (hydroxypropylcellulose) (HPC)) was 97 % of control and the T/C (dose: 12.5 mg/kg/injection, vehicle: Klucel (hydroxypropylcellulose) (HPC)) was 94 % of control. The T/C [3] was 96 % of control.

`CSc1nc(N)nc2c1ncn2C1OC(CO)C(O)C1O` (configuration not stated) was tested, and the T/C [4] was 103 % of control, the T/C [5] was 123 % of control and the T/C [6] was 112 % of control. The T/C [7] was 97 % of control and the T/C [8] was 101 % of control.

For `CS(=O)(=O)CS(=O)(=O)OCCF`, the T/C [1] was 107 % of control, the T/C (dose: 5.4 mg/kg/injection, vehicle: saline) was 100 % of control and the T/C [2] was 116 % of control. The T/C (dose: 9.0 mg/kg/injection, vehicle: saline) was 110 % of control and 100 % of control, the T/C (dose: 15.0 mg/kg/injection, vehicle: saline) was 113 % of control and 119 % of control and the T/C (dose: 41.67 mg/kg/injection, vehicle: saline) was 121 % of control and 216 % of control.

With `C/C(=N\N=C(/[Se])N1CC2CCC(CC2)C1)c1ccccn1` the T/C (dose: 0.75 mg/kg/injection, vehicle: Klucel (hydroxypropylcellulose) (HPC)) was 112 % of control and 92 % of control and 108 % of control, the T/C (dose: 1.5 mg/kg/injection, vehicle: Klucel (hydroxypropylcellulose) (HPC)) was 111 % of control and 99 % of control and the T/C (dose: 3.0 mg/kg/injection, vehicle: Klucel (hydroxypropylcellulose) (HPC)) was 115 % of control and 100 % of control. The T/C (dose: 6.0 mg/kg/injection, vehicle: Klucel (hydroxypropylcellulose) (HPC)) was 120 % of control and 93 % of control and 100 % of control.

`CC(=O)NC(Cc1cc(I)c(O)c(I)c1)C(=O)O` (configuration not stated) was tested, and the T/C [5] was 121 % of control, the T/C [6] was 89 % of control and the T/C [7] was 92 % of control. For the same compound, the T/C [8] was 102 % of control.

In the case of `Cc1c2ccccc2c(C)c2c1cc(C(=O)O)c1ccccc12`, the T/C (dose: 25.0 mg/kg/injection, vehicle: sodium bicarbonate) is reported as 99 % of control, the T/C (dose: 50.0 mg/kg/injection, vehicle: sodium bicarbonate) is reported as 105 % of control and the T/C (dose: 100.0 mg/kg/injection, vehicle: sodium bicarbonate) is reported as 108 % of control. The T/C (dose: 200.0 mg/kg/injection, vehicle: sodium bicarbonate) was 109 % of control and the T/C (dose: 400.0 mg/kg/injection, vehicle: sodium bicarbonate) was 101 % of control.

With `NCC(=O)N1CCCC1C(=O)NCC(=O)NCC(=O)O` (configuration not stated) (HELM PEPTIDE1{G.[O=C(C1CCCN1[*:1])[*:2]].G.G}$$$$V2.0) the T/C [5] was 92 % of control, the T/C [6] was 100 % of control and the T/C [7] was 95 % of control.

`CCN(CC)c1ccc2cc3ccc(=[N+](CC)CC)cc-3oc2c1` was tested, and the T/C (dose: 2.5 mg/kg/injection, vehicle: Klucel (hydroxypropylcellulose) (HPC)) was 104 % of control, the T/C (dose: 5.0 mg/kg/injection, vehicle: Klucel (hydroxypropylcellulose) (HPC)) was 96 % of control and the T/C (dose: 10.0 mg/kg/injection, vehicle: Klucel (hydroxypropylcellulose) (HPC)) was 88 % of control.

`NC(Cn1ccc(=O)c(O)c1)C(=O)O` (configuration not stated) was tested, and the T/C [9] was 107 % of control, the T/C [4] was 111 % of control and the T/C [5] was 101 % of control. The T/C [6] was 105 % of control and the T/C [7] was 105 % of control.

In the case of `CN(N=O)C(N)=O`, the T/C (dose: 12.0 mg/kg/injection, vehicle: saline) is reported as 188 % of control.

`NC(=S)N/N=C\c1ncccc1OCc1cccc(N)c1` was tested, and the T/C (dose: 12.5 mg/kg/injection, vehicle: distilled water + Tween-80) was 86 % of control, the T/C [10] was 103 % of control and the T/C (dose: 25.0 mg/kg/injection, vehicle: distilled water + Tween-80) was 100 % of control. For the same compound, the T/C [11] was 109 % of control and 113 % of control and 106 % of control, the T/C (dose: 50.0 mg/kg/injection, vehicle: distilled water + Tween-80) was 114 % of control and the T/C (dose: 100.0 mg/kg/injection, vehicle: distilled water + Tween-80) was 108 % of control. The T/C (dose: 200.0 mg/kg/injection, vehicle: distilled water + Tween-80) was 118 % of control, the T/C (dose: 400.0 mg/kg/injection, vehicle: distilled water + Tween-80) was 99 % of control and the T/C (dose: 400.0 mg/kg/injection, vehicle: saline with Tween-80) was 113 % of control and 121 % of control.

For `C/C=C/C=C1/OC(C)=C(C(C)=O)C1=O`, the T/C [10] was 99 % of control, the T/C [11] was 99 % of control and the T/C [12] was 106 % of control. The T/C [13] was 98 % of control and the T/C [14] was 109 % of control.

In the case of `O=C(NC(Cc1ccc(I)cc1)C(=O)O)c1cccc(Br)c1` (configuration not stated), the T/C [3] is reported as 100 % of control, the T/C [15] is reported as 104 % of control and the T/C [16] is reported as 105 % of control. The T/C [17] was 103 % of control and the T/C [18] was 89 % of control.

For `COc1cc(C)c(C2NC(=O)c3ccccc3N2)cc1C` (configuration not stated), the T/C [15] was 111 % of control and 120 % of control, the T/C [16] was 115 % of control and 105 % of control and the T/C [17] was 111 % of control. The T/C [18] was 112 % of control and the T/C (dose: 800.0 mg/kg/injection, vehicle: Klucel (hydroxypropylcellulose) (HPC)) was 107 % of control.

In the case of `CCN(CC)CCOC(=O)Cc1cccc2c(=O)cc(-c3ccccc3)oc12`, the T/C [9] is reported as 97 % of control and 103 % of control, the T/C [4] is reported as 115 % of control and 101 % of control and the T/C [5] is reported as 109 % of control and 99 % of control.

For `CCOC(=O)C(C)(C)Oc1ccc(Cl)cc1`, the T/C [10] was 93 % of control and 105 % of control, the T/C [11] was 93 % of control and 102 % of control and the T/C [12] was 93 % of control and 101 % of control. For the same compound, the T/C [13] was 102 % of control and 104 % of control and the T/C [14] was 90 % of control.

`C1OC1CN1CCN(CC2CO2)CC1` (configuration not stated) was tested, and the T/C (dose: 4.0 mg/kg/injection, vehicle: saline with Tween-80) was 103 % of control and the T/C (dose: 16.0 mg/kg/injection, vehicle: saline with Tween-80) was 110 % of control.

In the case of `N#CC(Br)(Br)C(N)=O`, the T/C (dose: 0.31 mg/kg/injection, vehicle: saline) is reported as 96 % of control, the T/C [19] is reported as 87 % of control and the T/C (dose: 37.5 micrograms/kg/injection, vehicle: saline) is reported as 98 % of control. The T/C (dose: 75.0 micrograms/kg/injection, vehicle: saline) was 98 % of control, the T/C (dose: 150.0 micrograms/kg/injection, vehicle: saline) was 96 % of control and the T/C (dose: 300.0 micrograms/kg/injection, vehicle: saline) was 93 % of control.

For `Nc1nc(-c2cccc([N+](=O)[O-])c2)c(Br)c(=O)[nH]1`, the T/C [11] was 115 % of control and the T/C [12] was 122 % of control.

`CCN1/C(=C/C=C/C=C\C=C\c2sc3ccc4ccccc4c3[n+]2CC)Sc2ccc3ccccc3c21` was tested, and the T/C [20] was 101 % of control, the T/C [19] was 124 % of control and the T/C [21] was 94 % of control. The T/C (dose: 2.5 mg/kg/injection, vehicle: saline) was 123 % of control.

For `O=C(Nc1ccc(C2=NCCCN2)cc1)c1ccc(C(=O)Nc2ccc(C3=NCCCN3)cc2)nc1`, the T/C (dose: 0.31 mg/kg/injection, vehicle: saline with Tween-80) was 100 % of control, the T/C (dose: 0.62 mg/kg/injection, vehicle: saline with Tween-80) was 106 % of control and the T/C [20] was 105 % of control. The T/C [21] was 100 % of control and the T/C (dose: 5.0 mg/kg/injection, vehicle: saline with Tween-80) was 100 % of control.

`C1CCC(NC2CCCCC2)CC1` was tested, and the T/C [4] was 86 % of control, the T/C [5] was 101 % of control and the T/C [6] was 106 % of control. The T/C [7] was 86 % of control and the T/C [8] was 104 % of control.

With `CC(O)C(NC(=O)CNC(=O)CNC(=O)OCc1ccccc1)C(=O)O` (configuration not stated) (HELM PEPTIDE1{[O=C(OCc1ccccc1)[*:2]].G.G.[CC(O)C(N[*:1])C(=O)O]}$$$$V2.0) the T/C [16] was 103 % of control, the T/C [17] was 106 % of control and the T/C [18] was 113 % of control.
